What is called EC50 is the concentration at which the effect is half-maximal.

This is an account of results in US12258329B2 (Merck Sharp & Dohme LLC, priority 2018, dated 2025).

For the first experiment, the system named is infected PBMCs (VSV-G pseudotyped HIV virus VSV-G/pNLG1-P2A-ΔEnv). Nature of the experiment: cells. The experiment is classed as cell-based, human. As to conditions: Homo sapiens, PBMC, read-out: TACK EC50.
For `Cc1nc(C2CC2)c(Cn2cnc(C(F)(F)C(F)F)c(Oc3cc(C(F)F)cc(C#N)c3C)c2=O)c(=O)[nH]1` [Example 62], the EC50 was found to be 406 nM.

`Cc1nc(C)c(Cn2cnc(C(C)(F)F)c(Oc3c(C)cc(C#N)cc3C)c2=O)c(=O)[nH]1` [Example 11, 4-((4-(1,1-difluoroethyl)-1-((2,4-dimethyl-6-oxo-1,6-dihydropyrimidin-5-yl)methyl)-6-oxo-1,6-dihydropyrimidin-5-yl)oxy)-3,5-dimethylbenzonitrile]: the EC50 stood at 267 nM.

`COCc1nc(C)c(Cn2cnc(C(F)(F)C(F)F)c(Oc3cc(C(F)F)cc(C#N)c3C)c2=O)c(=O)[nH]1` [Example 51, 5-(difluoromethyl)-3-((1-((2-(methoxymethyl)-4-methyl-6-oxo-1,6-dihydropyrimidin-5-yl)methyl)-6-oxo-4-(1,1,2,2-tetrafluoroethyl)-1,6-dihydropyrimidin-5-yl)oxy)-2-methylbenzonitrile]: the EC50 was 395 nM.

Consider `Cc1cc(C#N)c(Cl)c(Oc2c(C(F)(F)C(F)F)ncn(Cc3c(C)nc(C)[nH]c3=O)c2=O)c1` [Example 68, 2-chloro-3-((1-((2,4-dimethyl-6-oxo-1,6-dihydropyrimidin-5-yl)methyl)-6-oxo-4-(1,1,2,2-tetrafluoroethyl)-1,6-dihydropyrimidin-5-yl)oxy)-5-methylbenzonitrile], for which the EC50 stood at 478 nM.

As to `Cc1nc(COc2ncccn2)[nH]c(=O)c1Cn1cnc(C(C)(F)F)c(Oc2cc(C(F)F)cc(C#N)c2C)c1=O` [Example 25, 3-((4-(1,1-difluoroethyl)-1-((4-methyl-6-oxo-2-((pyrimidin-2-yloxy)methyl)-1,6-dihydropyrimidin-5-yl)methyl)-6-oxo-1,6-dihydropyrimidin-5-yl)oxy)-5-(difluoromethyl)-2-methylbenzonitrile], the EC50 was determined as 353 nM.

On to `Cc1cc(C#N)c(F)c(Oc2c(C(F)(F)C(F)(F)F)ncn(Cc3c(C)nc(C)[nH]c3=O)c2=O)c1` [Example 93, 3-((1-((2,4-dimethyl-6-oxo-1,6-dihydropyrimidin-5-yl)methyl)-6-oxo-4-(perfluoroethyl)-1,6-dihydropyrimidin-5-yl)oxy)-2-fluoro-5-methylbenzonitrile], for which the EC50 was found to be 172 nM.

For the compound `Cc1nc(C)c(Cn2cnc(C(C)(F)F)c(Oc3cc(Cl)cc(C#N)c3C)c2=O)c(=O)[nH]1` [Example 4, 5-chloro-3-((4-(1,1-difluoroethyl)-1-((2,4-dimethyl-6-oxo-1,6-dihydropyrimidin-5-yl)methyl)-6-oxo-1,6-dihydropyrimidin-5-yl)oxy)-2-methylbenzonitrile], the EC50 came to 412 nM.

`Cc1nc(C)c(Cn2cnc(C(F)(F)C(F)F)c(Oc3c(C)cc(C#N)cc3C(F)F)c2=O)c(=O)[nH]1` [Example 20, 3-(difluoromethyl)-4-((1-((2,4-dimethyl-6-oxo-1,6-dihydropyrimidin-5-yl)methyl)-6-oxo-4-(1,1,2,2-tetrafluoroethyl)-1,6-dihydropyrimidin-5-y1)oxy)-5-methylbenzonitrile]: the EC50 is 365 nM.

As for `Cc1c(C#N)cc(C(F)F)cc1Oc1c(C(F)(F)C(F)F)ncn(Cc2cnc(N)[nH]c2=O)c1=O` [Example 57, 3-((1-((2-amino-6-oxo-1,6-dihydropyrimidin-5-yl)methyl)-6-oxo-4-(1,1,2,2-tetrafluoroethyl)-1,6-dihydropyrimidin-5-yl)oxy)-5-(difluoromethyl)-2-methylbenzonitrile], the EC50 amounted to 493 nM.

For `Cc1nc(C)c(Cn2cnc(C(F)(F)C(F)F)c(Oc3cc(Cl)cc(C#N)c3N)c2=O)c(=O)[nH]1` [Example 27, 2-amino-5-chloro-3-((1-((2,4-dimethyl-6-oxo-1,6-dihydropyrimidin-5-yl)methyl)-6-oxo-4-(1,1,2,2-tetrafluoroethyl)-1,6-dihydropyrimidin-5-yl)oxy)benzonitrile], the EC50 stood at 451 nM.

Consider `Cc1nc(N)c(Cn2cnc(C(F)(F)C(F)(F)F)c(Oc3cc(Cl)cc(C#N)c3F)c2=O)c(=O)[nH]1` [Example 38, 3-((1-((4-amino-2-methyl-6-oxo-1,6-dihydropyrimidin-5-yl)methyl)-6-oxo-4-(perfluoroethyl)-1,6-dihydropyrimidin-5-yl)oxy)-5-chloro-2-fluorobenzonitrile], for which the EC50 is 481 nM.

Regarding `Cc1nc(C)c(Cn2cnc(C(F)(F)C(F)(F)F)c(Oc3cccc(C#N)c3F)c2=O)c(=O)[nH]1` [Example 85, 3-((1-((2,4-dimethyl-6-oxo-1,6-dihydropyrimidin-5-yl)methyl)-6-oxo-4-(perfluoroethyl)-1,6-dihydropyrimidin-5-yl)oxy)-2-fluorobenzonitrile], the EC50 came to 441 nM.

`Cc1nc(C)c(Cn2cnc(C(C)F)c(Oc3cc(Cl)cc(C#N)c3F)c2=O)c(=O)[nH]1` (single isomer, unassigned) [Example 30]: the EC50 worked out at 206 nM.

As for `Cc1nc(C(F)F)c(Cn2cnc(C(F)(F)C(F)(F)F)c(Oc3cc(C(F)F)cc(C#N)c3C)c2=O)c(=O)[nH]1` [Example 65, 5-(difluoromethyl)-3-((1-((4-(difluoromethyl)-2-methyl-6-oxo-1,6-dihydropyrimidin-5-yl)methyl)-6-oxo-4-(perfluoroethyl)-1,6-dihydropyrimidin-5-yl)oxy)-2-methylbenzonitrile], the EC50 turned out to be 382 nM.

In the case of `Cc1nc(C)c(Cn2cnc(C(F)(F)F)c(Oc3cc(Cl)cc(C#N)c3Cl)c2=O)c(=O)[nH]1` [Example 90, 2,5-dichloro-3-((1-((2,4-dimethyl-6-oxo-1,6-dihydropyrimidin-5-yl)methyl)-6-oxo-4-(trifluoromethyl)-1,6-dihydropyrimidin-5-yl)oxy) benzonitrile], the EC50 was 489 nM.

On to `Cc1nc(C)c(Cn2cnc(C(F)(F)C(F)F)c(Oc3c(C)cc(C#N)cc3C3CC3)c2=O)c(=O)[nH]1` [Example 19, 3-cyclopropyl-4-((1-((2,4-dimethyl-6-oxo-1,6-dihydropyrimidin-5-yl)methyl)-6-oxo-4-(1,1,2,2-tetrafluoroethyl)-1,6-dihydropyrimidin-5-yl)oxy)-5-methylbenzonitrile], for which the EC50 worked out at 315 nM.

For the compound `Cc1nc(C)c(Cn2cnc(C(F)(F)C(F)(F)F)c(Oc3c(Cl)cc(C#N)cc3Cl)c2=O)c(=O)[nH]1` [Example 96, 3,5-dichloro-4-((1-((2,4-dimethyl-6-oxo-1,6-dihydropyrimidin-5-yl)methyl)-6-oxo-4-(perfluoroethyl)-1,6-dihydropyrimidin-5-yl)oxy)benzonitrile], the EC50 turned out to be 367 nM.

Regarding `COc1c(C#N)cc(C(F)F)cc1Oc1c(C(F)(F)C(F)F)ncn(Cc2c(C)nc(C)[nH]c2=O)c1=O` [Example 10, 5-(difluoromethyl)-3-((1-((2,4-dimethyl-6-oxo-1,6-dihydropyrimidin-5-y1)methyl)-6-oxo-4-(1,1,2,2-tetrafluoroethyl)-1,6-dihydropyrimidin-5-y1)oxy)-2-methoxybenzonitrile], the EC50 was 146 nM.

Take `Cc1nc(C)c(Cn2cnc(C(F)(F)C(F)(F)F)c(Oc3cc(C#N)cc(C(F)F)c3)c2=O)c(=O)[nH]1` [Example 84]: the EC50 worked out at 291 nM.

The same experiment, now with this note: read-out: TACK EC50.
For `Cc1nc(C(C)O)[nH]c(=O)c1Cn1cnc(C(F)(F)C(F)F)c(Oc2cc(C(F)F)cc(C#N)c2C)c1=O` (single isomer, unassigned) [Example 54, 5-(difluoromethyl)-3-((1-((2-(1-hydroxyethyl)-4-methyl-6-oxo-1,6-dihydropyrimidin-5-yl)methyl)-6-oxo-4-(1,1,2,2-tetrafluoroethyl)-1,6-dihydropyrimidin-5-yl)oxy)-2-methylbenzonitrile], the EC50 was 213 nM.
